Bounds are passed on as bounds.

Usually Ki stands for a dissociation constant, usually derived from enzyme kinetics or from competition with a known ligand.

One test has as its target Carbonic anhydrase 1 (Homo sapiens, UniProt P00915).
In another test the target is Carbonic anhydrase 2 (Homo sapiens, UniProt P00918).
A further test concerns the target T1, Carbonic anhydrase 4 (Bos taurus, UniProt Q95323).
T1 sequence (Q95323 whole entry): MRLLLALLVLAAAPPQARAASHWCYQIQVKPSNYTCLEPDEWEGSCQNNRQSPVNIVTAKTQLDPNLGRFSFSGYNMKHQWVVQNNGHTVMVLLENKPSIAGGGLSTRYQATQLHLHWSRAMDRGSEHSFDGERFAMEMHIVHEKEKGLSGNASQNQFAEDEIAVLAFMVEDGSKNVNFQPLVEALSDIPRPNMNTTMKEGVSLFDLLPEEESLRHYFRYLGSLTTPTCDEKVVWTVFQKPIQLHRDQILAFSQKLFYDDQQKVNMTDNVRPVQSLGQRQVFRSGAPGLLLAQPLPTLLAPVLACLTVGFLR

Sequence of Carbonic anhydrase 1 (P00915 whole entry): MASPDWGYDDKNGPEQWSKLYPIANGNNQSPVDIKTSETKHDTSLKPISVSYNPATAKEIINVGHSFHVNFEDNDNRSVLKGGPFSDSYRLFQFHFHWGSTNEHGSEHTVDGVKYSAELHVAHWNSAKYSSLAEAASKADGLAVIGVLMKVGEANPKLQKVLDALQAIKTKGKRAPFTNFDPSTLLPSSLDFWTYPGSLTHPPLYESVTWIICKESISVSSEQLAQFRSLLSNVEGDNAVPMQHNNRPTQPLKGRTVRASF

As for `CC(C)C(C(=O)NO)N(Cc1ccccc1)S(=O)(=O)C(F)(F)C(F)(F)C(F)(F)C(F)(F)F` (configuration not stated), the figures for the Ki on Carbonic anhydrase 1, at Carbonic anhydrase 2 and on Carbonic anhydrase 4 were 140 nM, 108 nM and 124 nM, respectively.

For the compound `CC(C)CC(C(=O)NO)N(Cc1ccccc1)S(=O)(=O)c1c(F)c(F)c(F)c(F)c1F` (configuration not stated), the inhibition constant (Ki) came to 100 nM on Carbonic anhydrase 1, 56 nM at Carbonic anhydrase 2 and 75 nM on Carbonic anhydrase 4.

Regarding `O=C(CN(Cc1ccc([N+](=O)[O-])cc1)S(=O)(=O)c1c(F)c(F)c(F)c(F)c1F)NO`, the inhibition constant (Ki) at Carbonic anhydrase 1 stood at 150 nM; at Carbonic anhydrase 2, 107 nM; on Carbonic anhydrase 4, 130 nM.

On to `O=S(=O)(NO)c1ccc(Br)cc1`, for which the Ki at Carbonic anhydrase 1 amounted to 38000 nM; on Carbonic anhydrase 2, 18 nM; on Carbonic anhydrase 4, 39 nM.

In the case of `O=S(=O)(NO)C(F)(F)F`, the Ki is 20000 nM at Carbonic anhydrase 1, 30 nM on Carbonic anhydrase 2 and 16 nM on Carbonic anhydrase 4.

`CC(C(=O)NO)N(Cc1ccccc1)S(=O)(=O)c1c(F)c(F)c(F)c(F)c1F` (configuration not stated): the Ki at Carbonic anhydrase 1 stood at 84 nM; at Carbonic anhydrase 2 it was 38 nM; on Carbonic anhydrase 4 it was 43 nM.

In the case of `CC(C(=O)NO)N(Cc1ccccc1[N+](=O)[O-])S(=O)(=O)C(F)(F)C(F)(F)C(F)(F)C(F)(F)F` (configuration not stated), the Ki on Carbonic anhydrase 1, at Carbonic anhydrase 2 and at Carbonic anhydrase 4 was more than 200 nM in each case.

As for `CC(C(=O)NO)N(Cc1ccccc1Cl)S(=O)(=O)C(F)(F)C(F)(F)C(F)(F)C(F)(F)F` (configuration not stated), the inhibition constant Ki on Carbonic anhydrase 1, on Carbonic anhydrase 2 and at Carbonic anhydrase 4 was more than 200 nM throughout.

Regarding `COc1ccc(S(=O)(=O)NC(C)C(=O)NO)cc1` (configuration not stated), the inhibition constant Ki is 32 nM at Carbonic anhydrase 1, 35 nM on Carbonic anhydrase 2 and 30 nM on Carbonic anhydrase 4.

Consider `COc1ccc(S(=O)(=O)N(Cc2ccc([N+](=O)[O-])cc2)C(C)C(=O)NO)cc1` (configuration not stated), for which the Ki on Carbonic anhydrase 1, on Carbonic anhydrase 2 and at Carbonic anhydrase 4 was more than 200 nM each time.

With `COc1ccc(S(=O)(=O)NO)cc1N`, the Ki on Carbonic anhydrase 1 turned out to be 41000 nM; on Carbonic anhydrase 2, 44 nM; at Carbonic anhydrase 4 it was 136 nM.

As for `COc1ccc(S(=O)(=O)N(Cc2ccccc2)C(C)C(=O)NO)cc1` (configuration not stated), the Ki on Carbonic anhydrase 1 was determined as 195 nM; on Carbonic anhydrase 2, 120 nM; at Carbonic anhydrase 4, 136 nM.

As to `O=C(CN(Cc1ccccc1)S(=O)(=O)C(F)(F)C(F)(F)C(F)(F)C(F)(F)F)NO`, the inhibition constant (Ki) on Carbonic anhydrase 1 is 105 nM; at Carbonic anhydrase 2 it was 85 nM; on Carbonic anhydrase 4, 100 nM.

With `O=S(=O)(NO)C(F)(F)C(F)(F)C(F)(F)C(F)(F)C(F)(F)C(F)(F)C(F)(F)C(F)(F)F`, the inhibition constant Ki at Carbonic anhydrase 1 amounted to 1600 nM; on Carbonic anhydrase 2, 9 nM; on Carbonic anhydrase 4 it was 21 nM.

`O=S(=O)(NO)c1ccc(F)cc1`: the Ki is 15000 nM at Carbonic anhydrase 1, 19 nM on Carbonic anhydrase 2 and 90 nM at Carbonic anhydrase 4.

Regarding `COc1ccc(S(=O)(=O)N(Cc2ccccc2[N+](=O)[O-])C(C)C(=O)NO)cc1` (configuration not stated), the Ki on Carbonic anhydrase 1, at Carbonic anhydrase 2 and at Carbonic anhydrase 4 was more than 200 nM each time.

Turning to `O=S(=O)(NO)C(Cl)(Cl)Cl`, the inhibitory constant (Ki) on Carbonic anhydrase 1 worked out at 23000 nM; at Carbonic anhydrase 2, 150 nM; on Carbonic anhydrase 4 it was 210 nM.

On to `O=S(=O)(NO)C(F)(F)C(F)(F)C(F)(F)C(F)(F)F`, for which the inhibition constant Ki at Carbonic anhydrase 1 is 1800 nM; at Carbonic anhydrase 2, 15 nM; at Carbonic anhydrase 4, 27 nM.

Consider `O=[N+]([O-])c1cccc(S(=O)(=O)NO)c1`, for which the inhibition constant Ki stood at 17000 nM at Carbonic anhydrase 1, 5 nM at Carbonic anhydrase 2 and 24 nM on Carbonic anhydrase 4.

For the origin of these results see ChEMBL document CHEMBL1133677, “Carbonic anhydrase and matrix metalloproteinase inhibitors: sulfonylated amino acid hydroxamates with MMP inhibitory properties act as efficient inhibitors of CA isozymes I, II, and IV, and N-hydroxysulfonamides inhibit both these zinc enzymes” (J Med Chem, 2000).
